The source of these data is EP1506767A1, “Use of a carbonylated amine for stimulating hairgrowth and/or for slowing down their loss” (L'OREAL, priority 2003, dated 2005).

In experiment [1] the test system is canaux calcium. The experiment can be described thus: Calcium flux inhibition (IC50Ca2+) on SK-N-SH nerve cells. The format is cell-based. The conditions noted are these: concentration inhibiting 50 % of Ca2+ release, read-out: IC50Ca2+ Sur cellules nerveuses SK-N-SH. An excerpt: Par ailleurs, le demandeur a trouvé que les amines de formule (I) et en particulier de formule (II) sont des inhibiteurs de canaux calcium (ou de flux calcique) comme […] ou […]. Or, les inhibiteurs de canaux sont connus comme actifs dans le traitement de la chute des cheveux et sur leur effet bénéfique sur la microcirculation (confère description ci-dessus). Pour qu'une substance soit reconnue comme un inhibiteur des canaux calcium, elle doit pouvoir diminuer la concentration intracellulaire en calcium ou diminuer la liaison du calcium aux protéines intracellulaires comme par exemple la calmoduline, tel que cela est notamment décrit par Galizzi, J. P. et al., J. Biol. Chem. 1987, 262 p 6947; par Y. Okamiya et al., Eur. J. Pharmacol. 1991, 205, […]. Wagner et al., J. Neurosci. 1988, 8, […]. Lee et al., Life Sci. 1984, 35, p 721; par Schoemaker H. et Lauger S. Eur. J. Pharmacol. 1985, 111, p 273 ou encore I. J. Reynolds et al., J. Pharmacol. Exp. Ther. 1986, 237, p 731. Selon le protocole indiqué dans ces documents, […]'inhibition de flux calcique des composés (3), (4), (6) et (7), en comparaison […] sont donnés dans le tableau ci-après.
In general terms: Calcium assays in cells follow changes in intracellular calcium, usually with a dye or a luminescent sensor.

Experiment [2] relates to canaux calcium. The experiment in a line: Calcium flux inhibition (IC50Ca2+) on HDFa skin fibroblast cells. The format is cell-based. The conditions noted are these: concentration inhibiting 50 % of Ca2+ release, read-out: IC50Ca2+ Sur cellules issues de fibroblastes de la peau HDFa. An excerpt:
Par ailleurs, le demandeur a trouvé que les amines de formule (I) et en particulier de formule (II) sont des inhibiteurs de canaux calcium (ou de flux calcique) comme le vérapamil ou l'alvérine. Or, les inhibiteurs de canaux sont connus comme actifs dans le traitement de la chute des cheveux et sur leur effet bénéfique sur la microcirculation (confère description ci-dessus).
Pour qu'une substance soit reconnue comme un inhibiteur des canaux calcium, elle doit pouvoir diminuer la concentration intracellulaire en calcium ou diminuer la liaison du calcium aux protéines intracellulaires comme par exemple la calmoduline, tel que cela est notamment décrit par Galizzi, J. P. et al., J. Biol. Chem. 1987, 262 p 6947; par Y. Okamiya et al., Eur. J. Pharmacol. 1991, 205, p 49; par J. A. Wagner et al., J. Neurosci. 1988, 8, p 3354; par H. R. Lee et al., Life Sci. 1984, 35, p 721; par Schoemaker H. et Lauger S. Eur. J. Pharmacol. 1985, 111, p 273 ou encore I. J. Reynolds et al., J. Pharmacol. Exp. Ther. 1986, 237, p 731.
Selon le protocole indiqué dans ces documents, le demandeur a déterminé l'IC50Ca2+ d'inhibition de flux calcique des composés (3), (4), (6) et (7), en comparaison avec le vérapamil; les résultats sont donnés dans le tableau ci-après. IC50Ca2+ représente la concentration inhibitrice de 50 % de libération de Ca^2+.

Experiment [3] relates to coculture nerfs/muscles (cellules musculaires striées humaines). The experiment in a line: Inhibition of muscle fibre contractions in a nerve/muscle coculture model. It counts as cell-based, humaines; rat. Particulars: 10, 50, 100 µM; 60 s incubation; three muscle fibres; triplicate. As to the method: La molécule de l'exemple 1 a été testée à différentes concentrations, à savoir 10, 50 et 100 µM, sur un modèle de coculture nerfs/muscles, qui permet de recréer un arc moteur en innervant des cellules musculaires striées humaines avec des explants de moelle épinière et de ganglions rachidiens d'embryons de rat.
Ce test est prédictif d'un effet inhibiteur des contractions des fibres musculaires.
Des cellules musculaires humaines, issues de prélèvements de muscles striés de donneurs sains, sont ensemencées dans des puits de 1,8 cm^2 de section (boîtes de culture de 24 puits). Après 10 jours de culture, ces cellules forment une monocouche et fusionnent. A ce stade, des explants de moelle épinière d'embryons de rat de 13 jours contenant les ganglions rachidiens sont déposés sur la culture.
La croissance des neurites est visible en dehors de l'explant de moelle épinière après un jour de culture. Les premières contractions des fibres musculaires sont observées après 5 à 6 jours de coculture et après 3 semaines, toutes les fibres musculaires au voisinage des explants se contractent.
Les cocultures sont utilisées après 21 jours, quand les fibres musculaires sont striées et possèdent des jonctions neuromusculaires différenciées matures. […]

pIC50: −log10 of the molar value.

On to `CCN(CCCc1ccccc1)CCCc1ccccc1` [alvérine, reference compound], for which, in the experiment on canaux calcium [1], the pIC50 is 4.52. As to `CCCCCC(=O)CCN(CCCc1ccccc1)CCC(=O)CCCCC` [compound 3], the pIC50 is 4.74 in the experiment on canaux calcium [2] and 5.15 in the experiment with canaux calcium [1]. Regarding `CCCCCC(=O)CCN(CC)CCCc1ccccc1` [compound 4, 1-(N-éthyl, (3-phényl-)propylamino) octan-3-one], the “contractions des fibres musculaires” value in experiment [3] was “bloque les contractions”. In addition, the pIC50 in the experiment with canaux calcium [2] was 4.52; in the experiment with canaux calcium [1], 4.74. Take `CCCCCC(=O)CCN(CC)CCc1ccc(OC)c(OC)c1` [compound 6]: the results for the pIC50 in the experiment on canaux calcium [2] and with canaux calcium [1] were 4.66 and 4.49, respectively. For `CCCCCC(=O)CCN(CC)Cc1ccccc1` [compound 7], in that order: 4.74 and 4.77. Take `COc1ccc([C@@H]2Sc3ccccc3N(CCN(C)C)C(=O)[C@@H]2OC(C)=O)cc1` [diltiazem, reference compound]: the pIC50 in the experiment with canaux calcium [1] is under 4.35. For the compound `COC(=O)C1=C(C)NC(C)=C(C(=O)OC)C1c1ccccc1[N+](=O)[O-]` [nifédipine, reference compound], the pIC50 with canaux calcium [1] was 4.54.
